Experimental data reported in patent US20160228584A1, “18F -GLUTATHIONE CONJUGATE AS A PET TRACER FOR IMAGING TUMORS OR NEUROLOGICAL DISORDERS THAT OVEREXPRESS L-PGDS ENZYME” (National Tsing Hua University, priority 2015, published 2016).

How the values were obtained:
C6 glioma = test: Cellular uptake of radiotracer in tumor cells; format: cell-based
Method: The time point of addition of radio tracer was staggered such that every group could be harvested concurrently. At various times of 0.25, 0.5, 1.5, 3 and 5 h, the collection of the medium was progressing. During harvesting, the radioactive medium was collected from each of the wells, followed by rinsing with PBS […] twice. The medium and rinses (1.5 mL) were combined for counting; the counts were treated as extracellular radioactivity. Subsequently, the cells were lysed with 0.25% trypsin-EDTA ([…]) and the wells were rinsed with PBS twice. Both cells and rinses (1.5 mL) were combined for counting; the counts were treated as intracellular radioactivity. Radioactivity was measured using a scintillation gamma counter (Packard 5000, Packard Instrument Co. laboratory) and decay was corrected. Samples were performed triplicated at each time point for all uptake studies.
The uptake ratio was calculated according to the following expression:
Uptake ratio(%)=Countintracellular=Countextracellular+Countintracellular)×100%

[1] = Ex vivo analysis of biodistribution; format: in vivo; details: rat
Source text: The specimens included 1) organ tissues such as brain, liver, spleen, heart, kidney, lung, colon, small bowel, stomach, testes, skull, and muscle, and 2) body fluids such as blood and urine. These specimens were submitted for counting the radioactivity using a solid scintillation gamma counter (Packard 5000, Packard Instrument Co. laboratory). The counting value of each specimen was further divided by the sample weight to give the final expression as percentage of injection dose per sample weight (% ID/g).

C6 glioma brain tumor = test: PET imaging of C6-glioma rat brain tumor; format: in vivo; details: tail vein injection, three cross sections
Method: All studies involving animals were conducted in compliance with federal and institutional guidelines. Two weeks before imaging, healthy male SD rats were stereotactically inoculated in the right hemisphere with 1.0×10^5 C6 glioma cells (American Type Tissue Collection).
After C6 glioma cells were injected into the striatum of the SD rats, the animals were placed on heating pad until they have entirely recovered. When the xenografted tumor size has grown to a size of 1-2 mm in diameter, the animals were transferred to the animal facility under control by the research staff every morning. […] Prior to imaging, all rats were affixed with venous and arterial catheters. The in vivo xenograft C6 glioma was imaged 2 weeks after transplantation procedure, until the volume of the tumor reached 3 mm-5 mm in diameter, well-demarcated from normal brain tissue. Regular oral feeding was proceeded after the animals were recovered from anesthesia.
PET scanning experiments were performed within 72 hours of MRI experiment that used to confirm a successful inoculation of tumors by administering [^18F] FBuEA-GS3 via tail vein injection. Both machines of microPET and nanoPET/CT were employed.
Data were collected in list-mode format for 120 minutes. For reconstruction, the dynamic PET acquisition was divided into six 20-min frames over the scanning duration. […]

m-PGES = biological target: T1, m-PGES (Homo sapiens, UniProt O14684); test: Radioligand enzymatic binding assay (gel filtration HPLC); details: mPGES-1
T1 construct: purchased Cayman Chemical Inc
T1 sequence (O14684 1-152): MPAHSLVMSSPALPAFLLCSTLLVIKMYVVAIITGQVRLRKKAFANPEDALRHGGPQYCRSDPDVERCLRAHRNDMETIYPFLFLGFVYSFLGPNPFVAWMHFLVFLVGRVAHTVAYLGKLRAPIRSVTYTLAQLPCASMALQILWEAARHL
Method: (§1) The flow rate was 1 mL/min.
(§2) L-PGDS catalyzes the […] of prostaglandin H2 (PGH2), a metabolite (also known as a prostanoid) derived from arachidonic acid (AA) through oxidation and reduction via the catalysis of COX enzymes. For comparison, mPGES-1, the counterpart of L-PGDS that catalyzes the formation of PGE2 from COX-derived PGH2, was also used in this study. […] Thus, GST-P1 and GST-A1-1 enzymes were only used as negative controls.

GST-α = biological target: T2, GST-α (Homo sapiens, UniProt P08263); test: as above; details: GSTA1-1
T2 construct: purchased Pro SpecTany Techno Gene Ltd ENZ-469
T2 sequence (P08263 1-222): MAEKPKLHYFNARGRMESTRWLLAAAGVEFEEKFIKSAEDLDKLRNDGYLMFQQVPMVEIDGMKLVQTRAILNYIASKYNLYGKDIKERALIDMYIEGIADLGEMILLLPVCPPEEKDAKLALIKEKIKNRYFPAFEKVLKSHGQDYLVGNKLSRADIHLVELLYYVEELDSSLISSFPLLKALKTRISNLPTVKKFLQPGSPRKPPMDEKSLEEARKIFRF
Method: as §1, §2

GST-π = GST-π (Homo sapiens, UniProt P09211); test: as above; details: GSTP1
Method: as §1, §2

L-PGDS = biological target: T3, L-PGDS (Homo sapiens, UniProt P41222); test: Competitive inhibition of the production of PGD2 from PGH2 catalysed by L-PGDS (Cayman kit, EIA readout); format: biochemical; details: 200 μM of each test compound; duplicate; read-out: inhibition of the formation of PGD2 from PGH2
T3 construct: purchased Cayman 10006595
T3 sequence (P41222 23-190): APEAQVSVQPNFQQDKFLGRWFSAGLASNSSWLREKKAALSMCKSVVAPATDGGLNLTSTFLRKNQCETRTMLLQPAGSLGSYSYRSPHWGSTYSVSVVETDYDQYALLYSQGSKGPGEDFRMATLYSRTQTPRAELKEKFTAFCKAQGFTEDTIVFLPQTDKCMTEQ

Compound: C=C(CC)C(=O)c1ccc(OCC(=O)NCCCC[18F])c(Cl)c1Cl [[^18F]FbuEA 2, fluorine-18-labeled fluorobutyl ethacrynic amide]
- uptake in tumor cells versus normal cells (in words) (C6 glioma; tumor cells compared to normal cell): lower uptake in tumor cells compared to normal cell

Compound: CCC(CSC[C@@H](NC(=O)CC[C@@H](N)C(=O)O)C(=O)NCC(=O)O)C(=O)c1ccc(OCC(=O)NCCCC[18F])c(Cl)c1Cl (stereo partly drawn) [[^18F]FBuEA-GS 3, glutathione conjugate of fluorine-18-labeled fluorobutyl ethacrynic amide]
- radioactivity in the brain ([1]; brain, 1.0-1.5 mCi injected): 0.05 % ID/g
- distribution of radioactivity (in words) ([1]; fourteen tissue samples): mainly localized in the excretory system
- time to reach steady state of accumulation (C6 glioma; cellular uptake): approximately 15 min
- PET imaging of brain tumor (in words) (C6 glioma brain tumor): clear hot spot coinciding to the tumor region detected by MRI imaging
- binding affinity (in words) (m-PGES): did not show any binding affinity
- binding affinity (in words) (GST-α): weak binding affinities
- binding affinity (in words) (GST-π): weak binding affinities

Compound: O=c1ccn([C@@H]2O[C@H](CO)[C@@H](O)[C@H]2O)c(=O)[nH]1 [uridine]
- inhibition at 200 µM (L-PGDS): 5.6 ± 14.3%
